Legend:
L1210 [1] = test: In vitro inhibition of L1210 cell growth; format: functional, cell-based; conditions: Mus musculus
L1210 [2] = test: Compound was evaluated for influx of L1210 cells; format: functional, cell-based; conditions: Mus musculus

Row | IC50 (L1210 [1]) | Compound | Km (L1210 [2])
1 | 0.065 µM | CCC(Cc1cnc2nc(N)nc(N)c2n1)c1ccc(C(=O)NC(CCC(=O)O)C(=O)O)cc1 (centres undefined) | 1.08 µM
2 | 0.0034 µM | CN(Cc1cnc2nc(N)nc(N)c2n1)c1ccc(C(=O)N[C@@H](CCC(=O)O)C(=O)O)cc1 [METHOTREXATE] | 3.51 µM

From ChEMBL document CHEMBL1125517, “Synthesis and antifolate evaluation of 10-ethyl-5-methyl-5,10- dideazaaminopterin and an alternative synthesis of 10-ethyl-10- deazaaminopterin (edatrexate)” (J Med Chem, 1992)
